Data: ChEMBL document CHEMBL4406902, “Structure-based analysis and biological characterization of imatinib derivatives reveal insights towards the inhibition of wild-type BCR-ABL and its mutants” (Bioorg Med Chem Lett, 2019)

Columns and labels:
[1] = Inhibition of BCR/Abl P190 mutant (unknown origin) transfected in mouse Ba/F3 cells assessed as inhibition of cell proliferation measured after 72 hrs by CellTiter-Glo luminescent cell viability assay; assay type: cell-based; settings: BaF3, 72 h
[2] = Inhibition of BCR/Abl P230 mutant (unknown origin) transfected in mouse Ba/F3 cells assessed as inhibition of cell proliferation measured after 72 hrs by CellTiter-Glo luminescent cell viability assay; assay type: cell-based; settings: BaF3, 72 h

| SMILES | IC50 [1] [nM] | IC50 [2] [nM] |
| --- | --- | --- |
| Cc1ccc(NC(=O)c2ccc(CN3CCN(C)CC3)cc2)cc1Nc1nccc(-c2cccnc2)n1 [IMATINIB] | 346 | 222 |
| Cc1ncc(NC(=O)c2ccc(CN3CCN(C)CC3)c(C(F)(F)F)c2)cc1Nc1nccc(-c2cccnc2)n1 [FLUMATINIB] | 13.3 | 10.3 |
| Cc1cn(-c2cc(NC(=O)c3ccc(C)c(Nc4nccc(-c5cccnc5)n4)c3)cc(C(F)(F)F)c2)cn1 [NILOTINIB] | 23.2 | 19 |
